Data reported in US11766434B2, “Pyrimidinone derivatives as CDC7 inhibitors” (Cancer Research Technology Limited, priority 2016, dated 2023).
Where a name gives a salt, the structure may show the parent alone.

Experiments:
Cdc7 = Cdc7 (Homo sapiens, UniProt O00311); assay: Cdc7 cell pharmacodynamics assay Method 3: pS53MCM2 levels in SW48 cells; format: cell-based; set-up: endogenous in cells; host or cells: SW48; details: 6 hours treatment, read-out: Biomarker Method 3 (pEC50) (converted)
Excerpt: This protocol describes a method to investigate the inhibition of Cdc7 activity by measuring pS53MCM2 levels in cells, after treatment with compounds.
• SW48 cells • RPMI 1640 (Sigma, R5886) • 10% FCS (Sera Laboratories International Ltd, EU000F Batch: 108005) • 100× L-Glutamine (Invitrogen, 25030-024) • D-Glucose Solution (10%) (Sigma, G8644) • HEPES Buffer Solution (Sigma, 83264) • Sodium Pyruvate (Sigma, S8636) • PBS (Fisger, BP399-4) • Trypsin/EDTA (Invitrogen 25300-054) • 2% BSA in PBS • Cell Extraction Buffer (Invitrogen FNN0011) • Protease inhibitor cocktail (Sigma P-2714) • PMSF 0.3M stock in DMSO (Sigma P7626) • Antibody—rabbit pMCM2 Ser53 (Bethyl #A300-756A) • Antibody—goat MCM2 (Bethyl #A300-122A) • Antibody—goat Anti Rabbit IgG HRP (Perbio Science UK Ltd 31462) • SuperSignal ELISA Pico Chemiluminescent Substrate (Perbio Science UK Ltd 37070) Method • Plate 30,000 SW48 cells per well in standard TC treated 96 well plate in 100 μL complete RPMI 1640 medium. • Allow cells to settle overnight in incubator set at 37° C. and 5% CO2. • Cell treatment: prepare a 384 well plate containing 80 μl PBS/well. The PBS should be at room temperature—to be referred to as intermediate plate. Transfer 2 μL of compound from mother plate to intermediate (daughter plate) 1:40 dilution, then 5 μL intermediate to cell (daughter) plate. • Once all cells are treated place the cells back to the incubator and incubate for 6 hours. • Dilute the capture antibody (total MCM2 #A300-122A) 1 in 250 in the required volume of PBS (5 mL per assay plate, plus 5 mL for dead volume) and add 50 μL to each well of a Hybond plate. Seal the plate and incubate at room temperature for a minimum of 2 hours. • Defrost aliquot of Invitrogen Cell Extraction Buffer (FNN0011) on ice and supplement with appropriate volume of both Sigma protease inhibitor cocktail (P-2714) and PMSF (final cone 1 mM from a 1 M stock in DMSO). • After the 6 hour cell treatment time, tap out the media from the assay plates and place them in the −80° C. freezer for at least 5 minutes. • Remove plates from freezer and add 20 μL of ice cold complete lysis buffer, with the multidrop. Incubate cells for 30 minutes at 4° C. • Add 80 μL per well 2% BSA. • Flick out the remaining liquid from the capture plate and transfer 80 μL from the lysis plate to the same wells in the capture/ELISA plate, using the Biomek. Cover with plate seal and incubate plates overnight at 4° C. • Wash plates with PBS, remove any residual remaining liquid and add 50 μL per well of pMCM2 Ser53 antibody (#A300-756A) diluted 1 in 100 in 2% BSA. Cover plate and incubate at room temperature for 2 hours with gentle shaking. • Wash plates with PBS, remove any residual remaining liquid and Incubate with 50 μL goat anti rabbit antibody (1 in 800 dilution in 2% BSA), for 1 hour at room temperature. • Wash plates with PBS, remove any residual remaining liquid and add 50 μL mixed SuperSignal Pico substrate. • Incubate each plate for 5 minutes at room temperature shielding the plates from direct light (with a cover plate). Read plates with the luminescent detection. Results

Cdc7/ASK = Cdc7/ASK (Homo sapiens, UniProt O00311); assay: Cdc7 biochemical assay Method 3: off-chip mobility shift assay (MSA) run at Carna Biosciences; set-up: purchased Carna Biosciences; host or cells: baculovirus expression system; details: MCM2 peptide 1000 nM, ATP 5 μM, 5 hours, read-out: Biochemical method 3 (pIC50) (converted)
Cdc7/ASK, sequence (O00311 whole entry): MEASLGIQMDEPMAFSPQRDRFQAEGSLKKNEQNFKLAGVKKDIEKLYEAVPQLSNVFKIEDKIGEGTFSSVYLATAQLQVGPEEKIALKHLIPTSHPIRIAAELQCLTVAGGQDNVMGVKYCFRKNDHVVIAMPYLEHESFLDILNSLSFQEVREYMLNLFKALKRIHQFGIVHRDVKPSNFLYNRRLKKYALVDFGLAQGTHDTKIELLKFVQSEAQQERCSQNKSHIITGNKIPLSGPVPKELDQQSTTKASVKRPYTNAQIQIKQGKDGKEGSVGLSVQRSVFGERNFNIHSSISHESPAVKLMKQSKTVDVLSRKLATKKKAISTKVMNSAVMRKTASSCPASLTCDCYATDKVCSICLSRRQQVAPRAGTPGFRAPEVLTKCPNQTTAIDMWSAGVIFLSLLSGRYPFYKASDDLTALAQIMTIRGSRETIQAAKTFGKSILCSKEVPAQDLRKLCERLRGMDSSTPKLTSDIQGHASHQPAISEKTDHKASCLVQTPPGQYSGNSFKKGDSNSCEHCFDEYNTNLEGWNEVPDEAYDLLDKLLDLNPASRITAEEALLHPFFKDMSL
Cdc7/ASK, sequence (Q9UBU7 whole entry partner): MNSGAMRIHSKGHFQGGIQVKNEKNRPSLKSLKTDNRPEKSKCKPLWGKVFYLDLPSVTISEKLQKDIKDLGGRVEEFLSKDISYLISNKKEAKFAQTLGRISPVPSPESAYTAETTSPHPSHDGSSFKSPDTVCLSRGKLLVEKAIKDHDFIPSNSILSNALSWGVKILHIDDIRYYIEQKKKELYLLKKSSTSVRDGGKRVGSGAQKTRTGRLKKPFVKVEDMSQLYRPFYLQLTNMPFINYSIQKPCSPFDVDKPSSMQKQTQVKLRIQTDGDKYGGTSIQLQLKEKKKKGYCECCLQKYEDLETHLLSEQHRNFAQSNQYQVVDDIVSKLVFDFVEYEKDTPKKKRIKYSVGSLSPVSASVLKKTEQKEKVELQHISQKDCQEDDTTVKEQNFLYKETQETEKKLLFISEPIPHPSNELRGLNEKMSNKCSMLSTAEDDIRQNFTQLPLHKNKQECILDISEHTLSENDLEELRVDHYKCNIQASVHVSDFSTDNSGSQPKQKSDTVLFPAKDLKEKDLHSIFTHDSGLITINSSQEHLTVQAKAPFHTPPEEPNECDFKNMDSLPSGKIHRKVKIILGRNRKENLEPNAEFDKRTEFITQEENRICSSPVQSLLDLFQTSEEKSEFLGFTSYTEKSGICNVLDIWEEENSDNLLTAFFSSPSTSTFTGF
Procedure: This protocol describes a method for assaying Cdc7/ASK for activity. The assay is an off-chip mobility shift assay (MSA) run at Carna Biosciences.
The test compound was dissolved in and diluted with dimethylsulfoxide (DMSO) to achieve 100-fold higher concentration which was specified by the sponsor. Then the solution was further 25-fold diluted with assay buffer to make the final test compound solution. Reference compounds for assay control were prepared similarly. 2. Kinase Cdc7/ASK: Full-length human Cdc7 [1-574(end) amino acids of accession number NP_003494.1] was co-expressed as N-terminal GST-fusion protein (92 kDa) with Dbf4(ASK) [1-674(end) amino acids of accession number NP_006707.1] using baculovirus expression system. GST-Cdc7 was purified by using glutathione sepharose chromatography. 3. Assay Reagents and Procedures Off-Chip Mobility Shift Assay (MSA) • 1) The […] were prepared with assay buffer (20 mM HEPES, 0.01% Triton X-100, 1 mM DTT, pH 7.5) and mixed and incubated in a well of polypropylene 384 well microplate for 5 hours at room temperature. • 2) […] of Termination Buffer (QuickScout Screening Assist MSA; Carna Biosciences) was added to the well. • 3) The reaction mixture was applied to LabChip system (Perkin Elmer), and the product and substrate peptide peaks were separated and quantitated. • 4) The kinase reaction was evaluated by the product ratio calculated from peak heights of product (P) and substrate (S) peptides (P/(P+S)). 4. Reaction Conditions
5. Data Analysis The readout value of reaction control (complete reaction mixture) was set as a 0% inhibition, and the readout value of background (Enzyme(−)) was set as a 100% inhibition, then the percent inhibition of each test solution was calculated. IC50 value was calculated from concentration vs. % Inhibition curves by fitting to a four parameter logistic curve. Results

Cdc7, sequence (O00311 whole entry): as the sequence (O00311 whole entry) above
Cdc7, sequence (Q9UBU7 whole entry partner): as the sequence (Q9UBU7 whole entry partner) above

Row | SMILES | EC50 (Cdc7) [nM] | IC50 (Cdc7/ASK) [nM]
1 | Cc1ncsc1-c1nc(N2CCNCC(F)C2)c(Cl)c(=O)[nH]1 (centres unmarked) [Compound 62, 5-chloro-4-(6-fluoro-1,4-diazepan-1-yl)-2-(4-methylthiazol-5-yl)-1H-pyrimidin-6-one] | 977 | 21.4
2 | C[C@@H]1COCCN1c1nc(-c2cn[nH]c2Cl)[nH]c(=O)c1Cl [Compound 42, 5-chloro-2-(5-chloro-1H-pyrazol-4-yl)-4-[(3R)-3-methylmorpholin-4-yl]-1H-pyrimidin-6-one] | 389 | 3.8
3 | C[C@@H]1CNCCN1c1nc(-c2ccnn2C)[nH]c(=O)c1Cl [Compound 50, 5-chloro-4-[(2R)-2-methylpiperazin-1-yl]-2-(2-methylpyrazol-3-yl)-1H-pyrimidin-6-one] | 3630 | 43.7
4 | O=c1[nH]c(-c2cn[nH]c2Cl)nc(N2CCNCC(F)(F)C2)c1Cl [Compound 40, 5-chloro-2-(5-chloro-1H-pyrazol-4-yl)-4-(6,6-difluoro-1,4-diazepan-1-yl)-1H-pyrimidin-6-one hydrochloride] | 195 | 3.72
5 | Cc1ncsc1-c1nc(N2CCNCC2C(F)(F)F)c(Cl)c(=O)[nH]1 (centres unmarked) [Compound 60, 5-chloro-2-(4-methylthiazol-5-yl)-4-[2-(trifluoromethyl)piperazin-1-yl]-1H-pyrimidin-6-one] | 1230 | 20
6 | Cc1nocc1-c1nc(N2CCNC[C@H]2C)c(Cl)c(=O)[nH]1 [Compound 49, 5-chloro-2-(3-methylisoxazol-4-yl)-4-[(2R)-2-methylpiperazin-1-yl]-1H-pyrimidin-6-one] | 4570 | 51.3
7 | Cc1ncsc1-c1nc(N2CCNC[C@H]2C)c(Cl)c(=O)[nH]1 [Compound 58, 5-chloro-4-[(2R)-2-methylpiperazin-1-yl]-2-(4-methylthiazol-5-yl)-1H-pyrimidin-6-one] | 331 | 7.08
8 | Cc1ncsc1-c1nc(N2CCNCC(F)(F)C2)c(Cl)c(=O)[nH]1 [Compound 57, 5-chloro-4-(6,6-difluoro-1,4-diazepan-1-yl)-2-(4-methylthiazol-5-yl)-1H-pyrimidin-6-one hydrochloride] | 724 | 6.46
9 | Cc1ncsc1-c1nc(N2CCOC[C@H]2C)c(Cl)c(=O)[nH]1 [Compound 59, 5-chloro-4-[(3R)-3-methylmorpholin-4-yl]-2-(4-methylthiazol-5-yl)-1H-pyrimidin-6-one] | 724 | 7.41
10 | Cc1ncsc1-c1nc(N2CCNCC2C(F)F)c(Cl)c(=O)[nH]1 (centres unmarked) [Compound 61, 5-chloro-4-[2-(difluoromethyl)piperazin-1-yl]-2-(4-methylthiazol-5-yl)-1H-pyrimidin-6-one] | 162 | 12.9
11 | Cc1nccn1-c1nc(N2CCOC[C@H]2C)c(Cl)c(=O)[nH]1 [Compound 56, 5-chloro-2-(2-methylimidazol-1-yl)-4-[(3R)-3-methylmorpholin-4-yl]-1H-pyrimidin-6-one] | 4170 | 44.7

Second part, the compound after the results:

Row | EC50 (Cdc7) [nM] | IC50 (Cdc7/ASK) [nM] | SMILES
12 | 38 | 3.89 | C[C@@H]1CNCCN1c1nc(-c2scnc2Cl)[nH]c(=O)c1Cl [Compound 65, 5-chloro-2-(4-chlorothiazol-5-yl)-4-[(2R)-2-methylpiperazin-1-yl]-1H-pyrimidin-6-one hydrochloride]
13 | 16.6 | 3.39 | O=c1[nH]c(-c2scnc2Cl)nc(N2CCNCC2C(F)F)c1Cl (single isomer, unassigned) [Compound 69, 5-chloro-2-(4-chlorothiazol-5-yl)-4-[2-(difluoromethyl)piperazin-1-yl]-1H-pyrimidin-6-one hydrochloride]
14 | 75.9 | 4.27 | O=c1[nH]c(-c2scnc2Cl)nc(N2CCNCC(F)(F)C2)c1Cl [Compound 66, 5-chloro-2-(4-chlorothiazol-5-yl)-4-(6,6-difluoro-1,4-diazepan-1-yl)-1H-pyrimidin-6-one hydrochloride]
15 | 97.7 | 6.03 | O=c1[nH]c(-c2scnc2Cl)nc(N2CCNCC2C(F)F)c1Cl (centres unmarked) [Compound 67, 5-chloro-2-(4-chlorothiazol-5-yl)-4-[2-(difluoromethyl)piperazin-1-yl]-1H-pyrimidin-6-one]
16 | 1320 | 10.2 | O=c1[nH]c(-c2scnc2Cl)nc(N2CCNCC(F)C2)c1Cl (single isomer, unassigned) [Compound 73, 5-chloro-2-(4-chlorothiazol-5-yl)-4-(6-fluoro-1,4-diazepan-1-yl)-1H-pyrimidin-6-one hydrochloride]
17 | 324 | 6.76 | O=c1[nH]c(-c2scnc2Cl)nc(N2CCNCC2C(F)F)c1Cl (single isomer, unassigned) [Compound 70, 5-chloro-2-(4-chlorothiazol-5-yl)-4-[2-(difluoromethyl)piperazin-1-yl]-1H-pyrimidin-6-one hydrochloride]
18 | 525 | 5.5 | O=c1[nH]c(-c2scnc2C(F)(F)F)nc(N2CCNCC(F)(F)C2)c1Cl [Compound 63, 5-chloro-4-(6,6-difluoro-1,4-diazepan-1-yl)-2-[4-(trifluoromethyl)thiazol-5-yl]-1H-pyrimidin-6-one]
19 | 251 | 5.75 | O=c1[nH]c(-c2scnc2Cl)nc(N2CCNCC(F)C2)c1Cl (racemic) [Compound 71, 5-chloro-2-(4-chlorothiazol-5-yl)-4-(6-fluoro-1,4-diazepan-1-yl)-1H-pyrimidin-6-one hydrochloride]
20 | 166 | 4.17 | C[C@@H]1COCCN1c1nc(-c2scnc2Cl)[nH]c(=O)c1Cl [Compound 64, 5-chloro-2-(4-chlorothiazol-5-yl)-4-[(3R)-3-methylmorpholin-4-yl]-1H-pyrimidin-6-one]
21 | 95.5 | 3.8 | O=c1[nH]c(-c2scnc2Cl)nc(N2CCNCC(F)C2)c1Cl (single isomer, unassigned) [Compound 72, 5-chloro-2-(4-chlorothiazol-5-yl)-4-(6-fluoro-1,4-diazepan-1-yl)-1H-pyrimidin-6-one hydrochloride]
22 | 200 | 6.92 | O=c1[nH]c(-c2scnc2Cl)nc(N2CCNCC2C(F)(F)F)c1Cl (centres unmarked) [Compound 68, 5-chloro-2-(4-chlorothiazol-5-yl)-4-[2-(trifluoromethyl)piperazin-1-yl]-1H-pyrimidin-6-one]
